PMC6959544 (Bioorganic & medicinal chemistry, 2017)

Tests used:
hTRPV1 = hTRPV1 (Homo sapiens, UniProt Q8NER1); assay: In vitro hTRPV1 antagonism: inhibition of activation by capsaicin; assay type: cell-based; conditions: hTRPV1 in CHO cells, capsaicin 100 nM, FLIPR
[1] = system: CCI-induced cold allodynia (Bennett mouse model of neuropathic pain); assay: Analgesic activity on CCI-induced cold allodynia; assay type: in vivo; conditions: oral
[2] = system: capsaicin-induced hypothermia; assay: Capsaicin-induced hypothermia; assay type: in vivo; conditions: data not shown

hTRPV1, sequence (Q8NER1 whole entry): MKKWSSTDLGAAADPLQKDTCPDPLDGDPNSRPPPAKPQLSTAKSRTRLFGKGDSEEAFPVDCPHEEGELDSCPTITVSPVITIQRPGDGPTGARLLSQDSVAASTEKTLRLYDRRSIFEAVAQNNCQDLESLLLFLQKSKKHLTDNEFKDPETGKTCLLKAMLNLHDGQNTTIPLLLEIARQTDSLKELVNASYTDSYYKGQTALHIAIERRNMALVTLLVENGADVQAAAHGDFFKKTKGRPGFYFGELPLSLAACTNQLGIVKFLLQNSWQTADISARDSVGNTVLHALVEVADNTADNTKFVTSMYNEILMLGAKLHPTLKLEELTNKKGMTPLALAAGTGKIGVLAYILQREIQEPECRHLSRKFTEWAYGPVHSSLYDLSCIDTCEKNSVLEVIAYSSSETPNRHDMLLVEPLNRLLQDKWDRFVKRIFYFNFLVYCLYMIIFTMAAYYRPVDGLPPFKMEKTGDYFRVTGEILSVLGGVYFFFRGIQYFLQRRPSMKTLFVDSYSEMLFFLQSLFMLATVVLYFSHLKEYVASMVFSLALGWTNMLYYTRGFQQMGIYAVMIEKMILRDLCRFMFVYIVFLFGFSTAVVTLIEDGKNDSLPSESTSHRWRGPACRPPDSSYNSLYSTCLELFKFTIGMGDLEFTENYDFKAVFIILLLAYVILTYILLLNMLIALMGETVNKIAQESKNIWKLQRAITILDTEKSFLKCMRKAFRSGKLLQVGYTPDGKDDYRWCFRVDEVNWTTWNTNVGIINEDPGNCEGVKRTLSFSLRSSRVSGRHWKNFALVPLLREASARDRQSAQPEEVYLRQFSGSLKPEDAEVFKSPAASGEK

Compound: CC(C(=O)NCc1ccc(C(C)(C)C)nc1OCc1ccc(F)cc1)c1ccc(NS(C)(=O)=O)c(F)c1 (centres unmarked) [Compound 23, N-((6-(tert-Butyl)-2-((4-fluorobenzyl)oxy)pyridin-3-yl)methyl)-2-(3-fluoro-4-(methylsulfonamido)phenyl)propanamide]
- hTRPV1 antagonism (in words) (hTRPV1): good antagonism

Compound: C[C@H](C(=O)NCc1ccc(C(C)(C)C)nc1SC1CCCCC1)c1ccc(NS(C)(=O)=O)c(F)c1 [Compound 34S]
- antiallodynic effect on cold allodynia, % MPE ([1]; 3 mg/kg): greater than 50 % MPE
- in vivo functional character (in words) ([1]; 10 mg/kg): partial agonism
- antiallodynic activity (in words) ([1]; dose increased from 3 mg/kg to 10 mg/kg): decreased antiallodynic activity
- capsaicin-induced hypothermia, % MPE ([2]; 3 mg/kg po): 46 % MPE
- capsaicin-induced hypothermia, % MPE ([2]; 10 mg/kg po): 15 % MPE

Compound: N-((6-(tert-Butyl)-2-(cyclohexyloxy)pyridin-3-yl)methyl)-2-(3-fluoro-4-(methylsulfonamido)phenyl)propanamide [Compound 21]
- hTRPV1 antagonism (in words) (hTRPV1): clear reduction in potency

Compound: N-((6-(tert-Butyl)-2-(cyclopentyloxy)pyridin-3-yl)methyl)-2-(3-fluoro-4-(methylsulfonamido)phenyl)propanamide [Compound 20]
- hTRPV1 antagonism (in words) (hTRPV1): clear reduction in potency
